Results reported in patent US20140120083A1, “TREATMENT OF CANCERS USING PI3 KINASE ISOFORM MODULATORS” (INFINITY PHARMACEUTICALS, INC., priority 2012, published 2014).
“Also recorded” adds a separate entry of the source. Read-outs that look alike come from different tables or passages of the source.

Experiments:
[1] = target: PI3K δ (Homo sapiens, UniProt O00329); experiment: Clinical study in healthy subjects, basophil activation (CD63 on CCR3+ basophils, ex vivo anti-FcεR1); set-up: from tissue; host or cells: human whole blood (basophils)
Chain of PI3K δ (O00329 whole entry): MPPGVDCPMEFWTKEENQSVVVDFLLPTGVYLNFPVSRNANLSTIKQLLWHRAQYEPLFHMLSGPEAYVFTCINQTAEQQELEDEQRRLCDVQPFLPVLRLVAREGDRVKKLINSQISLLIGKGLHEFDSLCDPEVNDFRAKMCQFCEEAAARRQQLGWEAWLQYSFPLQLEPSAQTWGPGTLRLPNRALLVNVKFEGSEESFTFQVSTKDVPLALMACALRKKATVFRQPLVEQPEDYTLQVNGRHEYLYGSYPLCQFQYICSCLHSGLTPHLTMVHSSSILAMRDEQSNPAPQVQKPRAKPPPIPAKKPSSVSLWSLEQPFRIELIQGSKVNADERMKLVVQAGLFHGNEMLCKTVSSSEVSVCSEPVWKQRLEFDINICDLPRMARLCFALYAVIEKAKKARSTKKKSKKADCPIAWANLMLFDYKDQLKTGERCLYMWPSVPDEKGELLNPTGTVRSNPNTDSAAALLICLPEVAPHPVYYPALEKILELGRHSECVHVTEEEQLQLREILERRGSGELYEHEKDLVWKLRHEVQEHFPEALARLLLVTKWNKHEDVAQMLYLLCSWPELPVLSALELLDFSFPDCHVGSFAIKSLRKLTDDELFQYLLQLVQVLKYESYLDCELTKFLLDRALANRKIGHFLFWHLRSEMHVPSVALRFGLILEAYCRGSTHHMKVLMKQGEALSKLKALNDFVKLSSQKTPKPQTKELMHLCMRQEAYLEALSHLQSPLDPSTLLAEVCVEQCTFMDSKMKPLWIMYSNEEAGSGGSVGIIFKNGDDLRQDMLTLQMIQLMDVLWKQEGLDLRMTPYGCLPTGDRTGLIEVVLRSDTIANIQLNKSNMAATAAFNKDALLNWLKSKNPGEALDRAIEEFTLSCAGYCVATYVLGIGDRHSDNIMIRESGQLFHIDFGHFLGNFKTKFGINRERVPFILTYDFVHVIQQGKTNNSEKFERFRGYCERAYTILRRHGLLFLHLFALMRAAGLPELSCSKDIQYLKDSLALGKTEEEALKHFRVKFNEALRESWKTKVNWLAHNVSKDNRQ
Chain of PI3K δ (P27986 whole entry partner): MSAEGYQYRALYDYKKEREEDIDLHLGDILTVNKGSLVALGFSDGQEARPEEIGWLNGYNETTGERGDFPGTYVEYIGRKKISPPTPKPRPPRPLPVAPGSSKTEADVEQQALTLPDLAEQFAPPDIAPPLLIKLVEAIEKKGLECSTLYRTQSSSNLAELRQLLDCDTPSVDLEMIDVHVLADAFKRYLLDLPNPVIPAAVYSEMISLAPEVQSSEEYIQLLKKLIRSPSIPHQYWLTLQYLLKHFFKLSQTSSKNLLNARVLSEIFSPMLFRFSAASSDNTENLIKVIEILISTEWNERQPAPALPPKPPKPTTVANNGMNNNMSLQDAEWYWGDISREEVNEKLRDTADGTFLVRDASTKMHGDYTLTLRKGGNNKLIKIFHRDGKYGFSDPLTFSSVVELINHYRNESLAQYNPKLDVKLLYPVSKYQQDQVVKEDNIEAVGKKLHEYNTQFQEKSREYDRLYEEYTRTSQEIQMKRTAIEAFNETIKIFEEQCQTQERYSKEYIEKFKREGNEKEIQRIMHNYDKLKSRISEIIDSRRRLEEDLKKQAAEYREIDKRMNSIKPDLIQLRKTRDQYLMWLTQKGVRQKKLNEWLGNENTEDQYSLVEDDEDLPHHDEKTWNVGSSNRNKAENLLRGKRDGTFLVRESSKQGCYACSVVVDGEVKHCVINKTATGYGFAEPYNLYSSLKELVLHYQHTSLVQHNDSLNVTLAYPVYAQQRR

[2] = Pharmacokinetics, rat; type: in vivo, Sprague-Dawley rats
[3] = Clinical study in healthy adult subjects, safety
[4] = system: respiratory system; experiment: Respiratory study (plethysmography); conditions: male rats, single oral dose up to 350 mg/kg
[5] = Pharmacokinetics, monkey; type: in vivo, Cynomolgus monkeys
[6] = Single-dose toxicity study (MTD); conditions: monkey, in vivo, po
[7] = system: central nervous system; experiment: Neurofunctional study (FOB, motor activity); conditions: male rats
[8] = Tissue distribution of radiolabelled compound; type: in vivo; conditions: rat, radiolabelled Compound 292, majority of tissues
[9] = In vivo rat micronucleus assay
[10] = system: Caco-2 cell monolayers; experiment: Membrane permeability, Caco-2 cell monolayers; type: in vitro ADME, human
[11] = system: hemodynamic and electrocardiographic parameters; experiment: Cardiovascular telemetry study; type: in vivo, cynomolgus monkey; conditions: male monkeys
From the text: Four non-naive, male monkeys implanted with radiotelemetry transmitters were utilized during the conduct of this study.

[12] = Clinical study in healthy adult subjects, pharmacokinetics; type: in vivo, human; conditions: for AUC(0-24) / AUC(0-inf) / Cmax / T1/2 / half-life / AUC: mean (% CV); for AUC: read-out: AUC(0-tau)
[13] = Plasma protein binding, human; type: in vitro ADME; conditions: 100 μM (41700 ng/mL)
From the text: […]. […] […].

[14] = system: TNF-α and IL-10 production; experiment: Cytokine production in diluted whole blood stimulated with LPS; type: cell-based; conditions: diluted whole blood (1:1), 24 hours pre-treatment, 100 μg/mL LPS
Experimental: Serum concentrations of a panel of human cytokines/chemokines were determined by Milliplex 96-well immuno-assay as described below.

[15] = Sprague-Dawley, in vivo, IV, 2 mg/kg
[16] = Sprague-Dawley, in vivo, PO, 10 mg/kg
[17] = multiple doses for 2 weeks (n=36)
[18] = DDI portion, 200 mg q12h ketoconazole
[19] = human, plasma, oral, 1 mg, 1 mg Q12 h, Day 1
[20] = human, plasma, oral, 1 mg, 1 mg Q12 h, Day 14
[21] = human, plasma, oral, 2 mg, 2 mg Q12 h, Day 1
[22] = human, plasma, oral, 2 mg, 2 mg Q12 h, Day 14
[23] = human, plasma, oral, 5 mg, 5 mg Q12 h, Day 1
[24] = human, plasma, oral, 5 mg, 5 mg Q12 h, Day 14
[25] = human, plasma, oral, 10 mg, 10 mg Q24 h, Day 1
[26] = human, plasma, oral, 10 mg, 10 mg Q24 h, Day 14

C[C@H](Nc1ncnc2[nH]cnc12)c1cc2cccc(Cl)c2c(=O)n1-c1ccccc1 [Compound 292]
basophil activation (CD63 expression on CCR3+ basophils) ([1]; all single and multiple dose levels): dose-dependent reduction; also recorded: reduced in a dose-dependent manner | dose at which maximal PD response was achieved ([1]; single dose): 5 mg | clearance [2]: low to moderate | half-life [2]: less than 2 hrs | volume of distribution [2]: high | Foral ([2]; PO, 10 mg/kg): 57% | AUC(0-inf) [2, 15]: 1160 ng·h/mL | AUC(0-t) [2, 15]: 1150 ng·h/mL | Cmax [2, 15]: 1520 ng/mL | Tmax [2, 15]: 0.083 h | clearance ([2]; Sprague-Dawley, in vivo, IV, 2 mg/kg, read-out: Cl (converted)): 30.5 mL/min/kg | half-life ([2]; Sprague-Dawley, in vivo, IV, 2 mg/kg, read-out: T1/2 (converted)): 0.73 h | Vd ([2]; Sprague-Dawley, in vivo, IV, 2 mg/kg, read-out: Vss): 1.66 L/kg | AUC(0-inf) [2, 16]: 3300 ng·h/mL | AUC(0-t) [2, 16]: 2930 ng·h/mL | Cmax [2, 16]: 785 ng/mL | Tmax [2, 16]: 1.2 h | half-life ([2]; Sprague-Dawley, in vivo, PO, 10 mg/kg, read-out: T1/2 (converted)): 2.4 h | IgE ([3]; healthy subjects): No increases | deaths and serious adverse events ([3]; healthy subjects): no deaths and no serious adverse events | safety laboratory or ECG abnormalities ([3]; healthy subjects): No clinically significant safety laboratory or electrocardiogram (ECG) abnormalities | QTcF greater than 500 msec ([3]; healthy subjects, serial ECGs): No subject | largest change from baseline in QTcF ([3]; healthy subjects, serial ECGs): 37 ms | tolerability ([3]; healthy subjects, single doses up to 30 mg, up to 10 mg daily for 14 days): well tolerated; also recorded: well-tolerated | headache [3, 17]: 8% | myalgia [3, 17]: 6% | nasopharyngitis [3, 17]: 6% | respiratory parameters (respiratory rate, tidal volume, minute volume) [4]: no Compound 292-related effects | clearance ([5]; monkey): low to moderate | volume of distribution ([5]; monkey): high | AUC0-last ([5]; monkey, IV, 1 mg/kg): 2357 ng·h/mL | AUC(0-inf) ([5]; monkey, IV, 1 mg/kg): 2379 ng·h/mL | Cl ([5]; monkey, IV, 1 mg/kg): 7.17 mL/min/kg | Cmax ([5]; monkey, IV, 1 mg/kg): 1545 ng/mL | T1/2 ([5]; monkey, IV, 1 mg/kg): 5.0 h | Tmax ([5]; monkey, IV, 1 mg/kg): 0.083 h | Vss ([5]; monkey, IV, 1 mg/kg): 1.27 L/kg | AUC0-last ([5]; monkey, PO, 5 mg/kg): 4596 ng·h/mL | AUC(0-inf) ([5]; monkey, PO, 5 mg/kg): 4685 ng·h/mL | Cmax ([5]; monkey, PO, 5 mg/kg): 1327 ng/mL | Foral ([5]; monkey, PO, 5 mg/kg): 40% | T1/2 ([5]; monkey, PO, 5 mg/kg): 5.4 h | Tmax ([5]; monkey, PO, 5 mg/kg): 1.5 h | half-life ([5]; monkeys): 5 h | MTD [6]: 500 mg/kg | locomotor activity ([7]; 2 h after a 350 mg/kg oral dose): Significant decreases | effects on the central nervous system ([7]; dose levels≦50 mg/kg): No effects | qualitative or quantitative FOB parameters ([7]; single oral dose up to 350 mg/kg, up to 24 h post-dose): no changes | radioactivity in tissues at 24 hr [8]: without quantifiable levels of radioactivity | rat micronucleus assay [9]: no direct adverse effect | cell membrane permeability [10]: moderate | hemodynamic or electrocardiographic parameters ([11]; single oral dose of 5, 30, and 150 mg/kg): No Compound 292-related effects | waveform abnormalities or arrhythmias ([11]; up to 150 mg/kg oral): no waveform abnormalities or arrhythmias | AUC(0-24) ([12]; 1 mg single dose): 149 (67) ng * hr/mL | AUC(0-inf) ([12]; 1 mg single dose): 151 (68) ng * hr/mL | Cmax ([12]; 1 mg single dose): 43.4 (31) ng/mL | T1/2 ([12]; 1 mg single dose): 3.52 (29) hr | AUC(0-24) ([12]; 2 mg single dose): 289 (43) ng * hr/mL | AUC(0-inf) ([12]; 2 mg single dose): 296 (44) ng * hr/mL | Cmax ([12]; 2 mg single dose): 78.8 (16) ng/mL | T1/2 ([12]; 2 mg single dose): 5.43 (25) hr | AUC(0-24) ([12]; 5 mg single dose): 733 (5) ng * hr/mL | AUC(0-inf) ([12]; 5 mg single dose): 743 (5) ng * hr/mL | Cmax ([12]; 5 mg single dose): 246 (16) ng/mL | T1/2 ([12]; 5 mg single dose): 5.43 (10) hr | AUC(0-24) ([12]; 10 mg single dose): 891 (14) ng * hr/mL | AUC(0-inf) ([12]; 10 mg single dose): 914 (14) ng * hr/mL | Cmax ([12]; 10 mg single dose): 454 (40) ng/mL | T1/2 ([12]; 10 mg single dose): 9.47 (38) hr | AUC(0-24) ([12]; 20 mg single dose): 2193 (16) ng * hr/mL | AUC(0-inf) ([12]; 20 mg single dose): 2250 (16) ng * hr/mL | Cmax ([12]; 20 mg single dose): 997 (32) ng/mL | T1/2 ([12]; 20 mg single dose): 7.79 (51) hr | AUC(0-24) ([12]; 30 mg single dose): 3263 (38) ng * hr/mL | AUC(0-inf) ([12]; 30 mg single dose): 3395 (38) ng * hr/mL | Cmax ([12]; 30 mg single dose): 1140 (38) ng/mL | T1/2 ([12]; 30 mg single dose): 8.12 (18) hr | increase of AUC0-inf in the presence of ketoconazole [12, 18]: ~295% | increase of AUC0-last in the presence of ketoconazole [12, 18]: ~285% | increase of Cmax in the presence of ketoconazole [12, 18]: approximately 66% | excretion of unchanged compound in urine ([12]; healthy subjects): < 2 % of the administered dose | accumulation ([12]; healthy subjects, 14 days of Q12 h oral administration): less than 2 fold | half-life [12, 19]: 3.46 h | AUC [12, 19]: 124 ng·h/mL | Cmax ([12]; human, plasma, oral, 1 mg, 1 mg Q12 h, Day 1, read-out: Cmax): 49.1 ng/mL | half-life [12, 20]: 6.46 h | AUC [12, 20]: 199 ng·h/mL | Cmax ([12]; human, plasma, oral, 1 mg, 1 mg Q12 h, Day 14, read-out: Cmax): 66.8 ng/mL | half-life [12, 21]: 6.34 h | AUC [12, 21]: 290 ng·h/mL | Cmax ([12]; human, plasma, oral, 2 mg, 2 mg Q12 h, Day 1, read-out: Cmax): 101 ng/mL | half-life [12, 22]: 9.75 h | AUC [12, 22]: 524 ng·h/mL | Cmax ([12]; human, plasma, oral, 2 mg, 2 mg Q12 h, Day 14, read-out: Cmax): 140 ng/mL | half-life [12, 23]: 5.76 h | AUC [12, 23]: 774 ng·h/mL | Cmax ([12]; human, plasma, oral, 5 mg, 5 mg Q12 h, Day 1, read-out: Cmax): 257 ng/mL | half-life [12, 24]: 8.32 h | AUC [12, 24]: 1290 ng·h/mL | Cmax ([12]; human, plasma, oral, 5 mg, 5 mg Q12 h, Day 14, read-out: Cmax): 355 ng/mL | half-life [12, 25]: 6 h | AUC [12, 25]: 1530 ng·h/mL | Cmax ([12]; human, plasma, oral, 10 mg, 10 mg Q24 h, Day 1, read-out: Cmax): 553 ng/mL | half-life [12, 26]: 11.7 h | AUC [12, 26]: 2230 ng·h/mL | Cmax ([12]; human, plasma, oral, 10 mg, 10 mg Q24 h, Day 14, read-out: Cmax): 605 ng/mL | AUC(0-t) ([12]; human, plasma, healthy subjects, 5 mg BID, 14 days of oral dosing, read-out: mean AUC0-24 hr): 2580 ng·h/mL | protein bound [13]: 85.9% | IL-10 production [14]: inhibition | TNF-α production [14]: inhibition
